Test results as given in ChEMBL document CHEMBL5608241, “Discovery of Novel Non-nucleoside DOT1LR231Q Inhibitors with Improved Pharmacokinetic Properties and Anti-lung Cancer Efficacy” (J Med Chem, 2024).
Calls of active or inactive are those of the source. The calls are words filed in the database; no cut-off is given here.

What was measured:
NCI-H460 [1] = assay: Antiinvasive activity against DOT1L knockdown human NCI-H460 cells assessed as decrease in number of invading cells at 2.5 to 5 uM incubated for 72 hrs by crystal violet staining based transwell invasion assay; format: functional, cell-based; conditions: dose 2.5-5 µM
[2] = AUC (0 to t) in male Sprague-Dawley rat at 20 mg/kg, ip measured after 24 hrs by LC-MS/MS analysis; format: ADME, organism-based; conditions: in vivo
NCI-H460 [3] = assay: Downregulation of H3K79me2 expression in human NCI-H460 cells exogenously expressing DOT1L R231Q mutant (unknown origin) (1 to 416 residues) at 5 uM by Western blot analysis; format: functional, cell-based
[4] = AUC (0 to t) in male Sprague-Dawley rat at 20 mg/kg, iv measured after 24 hrs by LC-MS/MS analysis; format: ADME, organism-based; conditions: in vivo
[5] = Toxicity in male BALB/c-nu mouse model xenografted with human NCI-H460 cells harboring DOT1L R231Q mutant assessed as effect on lung viscera index at 20 mg/kg, ip administered five times a week for 3 weeks; format: organism-based; conditions: in vivo, 504 h
[6] = Toxicity in male BALB/c-nu mouse model xenografted with human NCI-H460 cells harboring DOT1L R231Q mutant assessed as effect on liver viscera index at 20 mg/kg, ip administered five times a week for 3 weeks; format: organism-based; conditions: in vivo, 504 h
NCI-H460 [7] = assay: Antiinvasive activity against human NCI-H460 cells exogenously expressing wildtype DOT1L (unknown origin) (1 to 416 residues) assessed as decrease in number of invading cells at 5 uM incubated for 72 hrs by crystal violet staining based transwell invasion assay relative to control; format: functional; design: scale not given: the % may be the effect or the level left
NCI-H460 [8] = assay: Effect on H3K36me2 expression in human NCI-H460 cells exogenously expressing wildtype DOT1L (unknown origin) (1 to 416 residues) at 5 uM by Western blot analysis; format: functional, cell-based
NCI-H460 [9] = assay: Antiinvasive activity against human NCI-H460 cells exogenously expressing wildtype DOT1L (unknown origin) (1 to 416 residues) assessed as inhibition of cell invasion at 2.5 to 5 uM incubated for 72 hrs by crystal violet staining based transwell invasion assay; format: functional; conditions: dose 2.5-5 µM
NCI-H460 [10] = assay: Antimigratory activity in human NCI-H460 cells exogenously expressing DOT1L R231Q mutant (unknown origin) (1 to 416 residues) assessed as decrease in number of migrating cells at 5 uM measured after 72 hrs by wound healing assay relative to control; format: functional; design: scale not given: the % may be the effect or the level left
[11] = Toxicity in male BALB/c-nu mouse model xenografted with human NCI-H460 cells harboring DOT1L R231Q mutant assessed as effect on body weight at 20 mg/kg, ip administered five times a week for 3 weeks; format: organism-based; conditions: in vivo, 504 h
NCI-H460 [12] = assay: Effect on H3K4me1 expression in human NCI-H460 cells exogenously expressing wildtype DOT1L (unknown origin) (1 to 416 residues) at 5 uM by Western blot analysis; format: functional, cell-based
NCI-H460 [13] = assay: Effect on H3K27me3 expression in human NCI-H460 cells exogenously expressing DOT1L R231Q mutant (unknown origin) (1 to 416 residues) at 5 uM by Western blot analysis; format: functional, cell-based
[14] = Bioavailability in male Sprague-Dawley rat at 20 mg/kg, ip measured after 24 hrs by LC-MS/MS analysis; format: ADME, organism-based; conditions: in vivo
NCI-H460 [15] = assay: Inhibition of colony formation in DOT1L knockdown human NCI-H460 cells at 2.5 to 5 uM incubated for 7 to 14 days by crystal violet staining based light microscopic analysis; format: functional, cell-based; conditions: dose 2.5-5 µM, time 7-14 day
NCI-H460 [16] = assay: Inhibition of colony formation in human NCI-H460 cells exogenously expressing wildtype DOT1L (unknown origin) (1 to 416 residues) at 2.5 to 5 uM incubated for 7 to 14 days by crystal violet staining based light microscopic analysis; format: functional, cell-based; conditions: dose 2.5-5 µM, time 7-14 day
[17] = AUC (0 to infinity) in male Sprague-Dawley rat at 20 mg/kg, ip measured after 24 hrs by LC-MS/MS analysis; format: ADME, organism-based; conditions: in vivo
[18] = Toxicity in male BALB/c-nu mouse model xenografted with human NCI-H460 cells harboring DOT1L R231Q mutant assessed as effect on physical activity at 20 mg/kg, ip administered five times a week for 3 weeks; format: organism-based; conditions: in vivo, 504 h
NCI-H460 [19] = assay: Inhibition of sphere formation in human NCI-H460 cells exogenously expressing DOT1L R231Q mutant (unknown origin) (1 to 416 residues) assessed as reduction in self-renewal at 5 uM incubated for 7 to 14 days by inverted microscopic analysis relative to control; format: functional; conditions: time 7-14 day
[20] = Cmax in male Sprague-Dawley rat at 20 mg/kg, ip measured after 24 hrs by LC-MS/MS analysis; format: ADME, organism-based; conditions: in vivo
NCI-H460 [21] = assay: Effect on H3K79me2 expression in human NCI-H460 cells exogenously expressing wildtype DOT1L (unknown origin) (1 to 416 residues) at 5 uM by Western blot analysis; format: functional, cell-based
NCI-H460 [22] = assay: Inhibition of ERK phosphorylation in human NCI-H460 cells exogenously expressing DOT1L R231Q mutant (unknown origin) (1 to 416 residues) at 5 uM by Western blot analysis; format: cell-based
NCI-H460 [23] = assay: Potency index, ratio of SGC0946 IC50 to test compound IC50 for antiproliferative activity against human NCI-H460 cells harboring DOT1L R231Q mutant (unknown origin) (1 to 416 residues) assessed as inhibition of cell proliferation incubated for 72 hrs by CCK-8 assay; format: functional
NCI-H460 [24] = assay: Effect on H3K9me2 expression in human NCI-H460 cells exogenously expressing DOT1L R231Q mutant (unknown origin) (1 to 416 residues) at 5 uM by Western blot analysis; format: functional, cell-based
NCI-H460 [25] = assay: Induction of DOT1L R231Q mutant (unknown origin) (1 to 416 residues) stabilization exogenously expressed in human NCI-H460 cells assessed as protection against protease E-mediated degradation preincubated for 7 days followed by protease digestion for 10 mins by DARTS assay; format: cell-based; conditions: dose 1.25-5 µM, time 10090.0 min
NCI-H460 [26] = assay: Inhibition of colony formation in human NCI-H460 cells exogenously expressing DOT1L R231Q mutant (unknown origin) (1 to 416 residues) at 2.5 to 5 uM incubated for 7 to 14 days by crystal violet staining based light microscopic analysis; format: functional, cell-based; conditions: dose 2.5-5 µM, time 7-14 day
NCI-H460 [27] = assay: Inhibition of sphere formation in human NCI-H460 cells exogenously expressing DOT1L R231Q mutant (unknown origin) (1 to 416 residues) assessed as reduction in self-renewal at 2.5 to 5 uM incubated for 7 to 14 days by inverted microscopic analysis; format: functional, cell-based; conditions: dose 2.5-5 µM, time 7-14 day
NCI-H460 [28] = assay: Inhibition of sphere formation in human NCI-H460 cells exogenously expressing wildtype DOT1L (unknown origin) (1 to 416 residues) assessed as reduction in self-renewal at 2.5 to 5 uM incubated for 7 to 14 days by inverted microscopic analysis; format: functional, cell-based; conditions: dose 2.5-5 µM, time 7-14 day
NCI-H460 [29] = assay: Antimigratory activity in human NCI-H460 cells exogenously expressing DOT1L R231Q mutant (unknown origin) (1 to 416 residues) assessed as decrease in number of migrating cells at 2.5 to 5 uM measured after 72 hrs by wound healing assay; format: functional, cell-based; conditions: dose 2.5-5 µM

CC(C)(C)c1ccc(NC(=O)NCCCN(CCCN2CCOCC2)CC2(O)CCN(c3nc(Cl)nc4sccc34)C2)cc1 (centres undefined)
Activity (NCI-H460 [1]): inactive
AUC(0-t) at 24 h [2]: 5280 ng·h/mL
Activity (NCI-H460 [3]): Active
AUC(0-t) at 24 h [4]: 5980 ng·h/mL
Activity [5]: Non-Toxic
Activity [6]: Non-Toxic
Activity (NCI-H460 [7]): 61.5%
Activity (NCI-H460 [8]): inactive
Activity (NCI-H460 [9]): Active
Activity (NCI-H460 [10]): 60.4%
Activity [11]: Non-Toxic
Activity (NCI-H460 [12]): inactive
Activity (NCI-H460 [13]): inactive
bioavailability [14]: 92.2%
inhibition (NCI-H460 [15]): inactive
inhibition (NCI-H460 [16]): Active
AUC(0-inf) [17]: 5710 ng·h/mL
Activity [18]: Non-Toxic
inhibition at 5 µM (NCI-H460 [19]): 82%
Cmax [20]: 2570 ng/mL
Activity (NCI-H460 [21]): inactive
inhibition (NCI-H460 [22]): Active
Ratio IC50 (NCI-H460 [23]): 1.3
Activity (NCI-H460 [24]): inactive
Activity (NCI-H460 [25]): Dose-Dependent Effect
inhibition (NCI-H460 [26]): Active
inhibition (NCI-H460 [27]): Active
inhibition (NCI-H460 [28]): Active
Activity (NCI-H460 [29]): Active
